Like-named read-outs stand apart in the source and are kept apart here.
Assays:
Format in all cases: cell-based
IRAK-4 [1] = biological target: T1, IRAK-4 (Homo sapiens, UniProt Q9NWZ3); assay: IRAK-4 ELISA, OCI-Ly10 degradation; design: endogenous in cells; conditions: treated overnight; for Dmax: OCI-Ly10, OCI-Ly10 cells
T1 sequence (Q9NWZ3 1-460): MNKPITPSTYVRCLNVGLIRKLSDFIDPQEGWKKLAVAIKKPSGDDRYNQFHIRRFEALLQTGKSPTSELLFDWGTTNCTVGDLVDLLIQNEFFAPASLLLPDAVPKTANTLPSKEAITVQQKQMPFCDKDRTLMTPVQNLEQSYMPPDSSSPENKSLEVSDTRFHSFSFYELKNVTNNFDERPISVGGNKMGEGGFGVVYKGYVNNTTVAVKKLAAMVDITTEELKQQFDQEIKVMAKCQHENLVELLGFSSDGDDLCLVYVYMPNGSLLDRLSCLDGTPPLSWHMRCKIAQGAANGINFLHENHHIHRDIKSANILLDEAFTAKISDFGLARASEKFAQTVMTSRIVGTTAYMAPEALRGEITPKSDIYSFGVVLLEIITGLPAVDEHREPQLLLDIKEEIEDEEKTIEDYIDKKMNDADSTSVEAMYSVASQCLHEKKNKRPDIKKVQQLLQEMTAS
Experimental: Reagents: Human IRAK-4 Matched Antibody Pair Kit (Abcam ab218182) and ELISA Accessory Pack (Abcam ab210905).
Cell Treatment and Lysis:
1. OCI-Ly10: 200,000 cells are seeded at 1×10^6/ml in 96-well U-bottom plates 200 ul per well, treated with compound the same day. Incubate overnight. 2. PBMC: 800,000 cells are seeded at 2×10^6/ml in 96-well U-bottom deep-well plates, 400 ul per well, treated with compound the same day. Incubate overnight.
Cell lysate is collected and analyzed by ELISA for IRAK-4 levels.

IRAK-4 [2] = biological target: T1, IRAK-4; assay: IRAK-4 ELISA, PBMC degradation; design: endogenous in cells; host or cells: PBMC; conditions: treated overnight
Method in brief: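 ELISA quantification of cellular IRAK-4 after compound treatment overnight; PBMC were plated at 2×10^6/ml, OCI-Ly10 at 1×10^6/ml.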

IL6 = assay: IL-1β stimulated IL6 inhibition assay in PBMC; conditions: human PBMCs, IL-1β stimulation, compound overnight, IL6 by MSD after 24 hrs; for IC50: read-out: IL1β stim IL6 inhibition IC50; for Emax: read-out: IL1β stim IL6 inhibition Ymax
Experimental: (§1) IL-1β, LPS, or R848 Stimulated IL6 Inhibition and IL-1β Stimulated IL8 Inhibition Assay
(§2) Human PBMC cells were seeded at 2.0×10^6 cells/mL, treated with compound overnight, and dosed with the EC50 concentration of each stimulant (either IL-1B. LPS, or R848) was determined for each donor. After 24 hrs, media was collected and analyzed by MSD for IL6 and/or IL8 levels.

IL8 = assay: IL-1β stimulated IL8 inhibition assay in PBMC; conditions: human PBMCs, IL-1β stimulation, compound overnight, IL8 by MSD after 24 hrs; for IC50: read-out: IL1β stim IL8 inhibition IC50; for Emax: read-out: IL1β stim IL8 inhibition Ymax
Experimental: as §1, §2

Dmax (IRAK-4 [1]) [%]	DC50 (IRAK-4 [1]; OCI-Ly10 cells) [nM]	DC50 (IRAK-4 [2]) [nM]	Dmax (IRAK-4 [2]) [%]	PBMC DC90 (IRAK-4 [2])	IC50 (IL6; Homo sapiens, PBMC, 24 h) [nM]	IC50 (IL8) [nM]	IC50 (IL6) [nM]	OCI-LY10 Dmax (IRAK-4 [1]; OCI-Ly10 cells)	SMILES	Emax (IL6; PBMC) [%]	Emax (IL8) [%]	PBMC Dmax (IRAK-4 [2])	IL1β stim IL6 inhibition Ymax (IL6)
≥ 90	< 10	< 1	≥ 90	4 nM	< 10	10 to 50			CC(C)Oc1cc2c(cc1NC(=O)c1cnn3cccnc13)CN(C1CCN(CC3CN(c4ccc5c(c4)CN(C4CCC(=O)NC4=O)C5=O)C3)CC1)C2=O (stereo not shown) [Example 4]	≥ 90	80 to 90		
≥ 90	< 10	1 to 5	80 to 90	5 nM	10 to 50	50 to 100			CC(C)Oc1cc2c(cc1NC(=O)c1cnn3cccnc13)CN(C1CCN(CC3CN(c4ccc5c(c4)C(=O)N(C4CCC(=O)NC4=O)C5=O)C3)CC1)C2=O (stereo not shown) [Example 5]	80 to 90	80 to 90		
		< 1	≥ 90	6 nM	< 10	10 to 50			CC(C)Oc1cc2c(cc1NC(=O)c1cnn3cccnc13)CN(C1CCN(CC3CCN(c4ccc5c(c4)CN(C4CCC(=O)NC4=O)C5=O)CC3)CC1)C2=O (stereo not shown) [Example 6]	≥ 90	80 to 90		
≥ 90	< 10	1 to 5	80 to 90	A (A represents a DC90 value <10.0 nM)	< 10	10 to 50			Cc1cnc2c(C(=O)Nc3cc4c(cc3OC(C)C)C(=O)N(C3CCN(CCc5ccc6c(c5)CN(C5CCC(=O)NC5=O)C6=O)CC3)C4)cnn2c1 (stereo not shown) [Example 9]	≥ 90	70 to 80		
≥ 90	< 10	< 1	≥ 90	A (A represents a DC90 value <10.0 nM)	10 to 50	10 to 50			COc1cc(N2CCC(CN3CCC(N4Cc5cc(NC(=O)c6cnn7cccnc67)c(OC(C)C)cc5C4=O)CC3)CC2)cc2c1C(=O)N(C1CCC(=O)NC1=O)C2=O (stereo not shown) [Example 12]	80 to 90	< 70		
		< 1	80 to 90	A (A represents a DC90 value <10.0 nM)	< 10	10 to 50			O=C1CCC(N2Cc3cc(N4CCC(CN5CCC(N6Cc7cc(NC(=O)c8cnn9cccnc89)c(OCC8CC8)cc7C6=O)CC5)CC4)ccc3C2=O)C(=O)N1 (stereo not shown) [Example 22]	≥ 90	70 to 80		
70 to 80	< 10	1 to 5	80 to 90	A (A represents a DC90 value <10.0 nM)	10 to 50	50 to 100			O=C1CCC(N2Cc3cc(N4CC(CN5CCC(N6Cc7cc(NC(=O)c8cnn9cccnc89)c(OCC8CC8)cc7C6=O)CC5)C4)ccc3C2=O)C(=O)N1 (stereo not shown) [Example 29]	< 70	70 to 80		
≥ 90	< 10	< 1	80 to 90	A (A represents a DC90 value <10.0 nM)	10 to 50	≥ 100			O=C1CCC(N2C(=O)c3ccc(N4CCC(CN5CCC(N6Cc7cc(NC(=O)c8cnn9cccnc89)c(OCC8CC8)cc7C6=O)CC5)CC4)cc3C2=O)C(=O)N1 (stereo not shown) [Example 30]	≥ 90			
		1 to 5	≥ 90	A (A represents a DC90 value <10.0 nM)	10 to 50	50 to 100			CC(C)Oc1cc2c(cc1NC(=O)c1cnn3cccnc13)CN([C@H]1CC[C@H](N3CCN(c4ccc5c(c4)C(=O)N(C4CCC(=O)NC4=O)C5=O)CC3)CC1)C2=O (stereo partly shown) [Example 66]	≥ 90	70 to 80		
		< 1	≥ 90	A (A represents a DC90 value <10.0 nM)	< 10	10 to 50			O=C1CCC(N2Cc3cc(N4CC(N5CCC(n6cc7cc(NC(=O)c8cnn9cccnc89)c(OCC8CC8)cc7n6)CC5)C4)ccc3C2=O)C(=O)N1 (stereo not shown) [Example 283]	≥ 90	< 70		
		< 1	80 to 90	A (A represents a DC90 value <10.0 nM)	< 10	10 to 50			CC(C)Oc1cc2c(cc1NC(=O)c1cnn3cccnc13)CN(C1CCC(N(C)C3CN(c4ccc5c(c4)CN(C4CCC(=O)NC4=O)C5=O)C3)CC1)C2=O (stereo not shown) [Example 314]	≥ 90	70 to 80		
		< 1	≥ 90	A (A represents a DC90 value <10.0 nM)	< 10	10 to 50			CN(C1CN(c2ccc3c(c2)C(=O)N(C2CCC(=O)NC2=O)C3=O)C1)[C@H]1CC[C@H](n2cc3cc(NC(=O)c4cnn5cccnc45)c(OCC4CC4)cc3n2)CC1 (stereo partly shown) [Example 336]	≥ 90	70 to 80		
		< 1	≥ 90	A (A represents a DC90 value <10.0 nM)	< 10	≥ 100			CC(C)Oc1nc2c(cc1NC(=O)c1cnn3cccnc13)CN(C1CCN(CC3CN(c4ccc5c(c4)C(=O)N(C4CCC(=O)NC4=O)C5=O)C3)CC1)C2=O (stereo not shown) [Example 398]	≥ 90			
		5 to 10	80 to 90	D (D represents a DC90 value ≥50 nM)	≥ 100	≥ 100			CC(C)Oc1nc2c(cc1NC(=O)c1cnn3cccnc13)CN(C1CCN(CCc3ccc4c(c3)C(=O)N(C3CCC(=O)NC3=O)C4=O)CC1)C2=O (stereo not shown) [Example 400]	≥ 90			

SMILES	Dmax (IRAK-4 [1]) [%]	DC50 (IRAK-4 [1]; OCI-Ly10 cells) [nM]	DC50 (IRAK-4 [2]) [nM]	Dmax (IRAK-4 [2]) [%]	PBMC DC90 (IRAK-4 [2])	IC50 (IL6; Homo sapiens, PBMC, 24 h) [nM]	IC50 (IL8) [nM]	IC50 (IL6) [nM]	OCI-LY10 Dmax (IRAK-4 [1]; OCI-Ly10 cells)	Emax (IL6; PBMC) [%]	Emax (IL8) [%]	PBMC Dmax (IRAK-4 [2])	IL1β stim IL6 inhibition Ymax (IL6)
CC(C)Oc1cc2c(cc1NC(=O)c1cnn3cccnc13)CN(C1CCN(CC3CCN(c4cc5c(cc4F)C(=O)N(C4CCC(=O)NC4=O)C5=O)CC3)CC1)C2=O (stereo not shown) [Example 13]			< 1	≥ 90	C (C represents a DC90 value ≥25.0 nM and <50 nM)	10 to 50	≥ 100			≥ 90	≥ 90		
O=C1CCC(N2C(=O)c3ccc(N4CCC(CN5CCC(N6Cc7cc(NC(=O)c8cnn9cccnc89)c(N8CCOCC8)cc7C6=O)CC5)CC4)cc3C2=O)C(=O)N1 (stereo not shown) [Example 31]	80 to 90	< 10	1 to 5	≥ 90	B (B represents a DC90 value ≥10.0 nM and <25.0 nM)			≥ 100		≥ 90			
O=C1CCC(N2C(=O)c3ccc(N4CCC(CN5CCC(N6Cc7cc(NC(=O)c8cnn9cccnc89)c(N8CCOCC8)cc7C6=O)CC5)CC4)cc3C2=O)C(=O)N1 (stereo not shown) [Example 32]		< 10	1 to 5		C (C represents a DC90 value ≥25.0 nM and <50 nM)		≥ 100	10 to 50	D (D represents a Dmax value <70)		≥ 90	C (C represents a Dmax value ≥70 and <80)	A (A represents a Ymax value ≥90)
O=C1CCC(N2Cc3cc(CCN4CCC(N5Cc6cc(NC(=O)c7cnn8cccnc78)c(N7CCOCC7)cc6C5=O)CC4)ccc3C2=O)C(=O)N1 (stereo not shown) [Example 36]	< 70	< 10	1 to 5	< 70	B (B represents a DC90 value ≥10.0 nM and <25.0 nM)	10 to 50	≥ 100			70 to 80			
CC(C)Oc1cc2c(cc1NC(=O)c1cnn3cccnc13)CN([C@H]1CC[C@@H](N3CCN(c4ccc5c(c4)C(=O)N(C4CCC(=O)NC4=O)C5=O)CC3)CC1)C2=O (stereo partly shown) [Example 67]			1 to 5	≥ 90	C (C represents a DC90 value ≥25.0 nM and <50 nM)	10 to 50	≥ 100			≥ 90	≥ 90		

From US20230099344A1, “COMPOUNDS AND METHODS FOR THE TARGETED DEGRADATION OF IRAK-4” (Arvinas Operations, Inc., priority 2021, published 2023)
